From paper PMC12163635, “Synthetic Retinoids for the Modulation of Genomic and Nongenomic Processes in Neurodegenerative Diseases” (ACS Omega, 2025)
Where two headings read alike, the source gives them in different places.

Columns and labels:
Test in all cases: Fluorescence competition binding assay (displacement of DC271)
RARα [1] = target: T1, RARα (Homo sapiens, UniProt P10276); conditions: for Kd / Binding KD (± SD) RARα: 100 nM RAR and DC271 on plate; for Kd: read-out: Binding KD (± SD) RARα; for ΔGEXP RARα: experimental binding free energy from K D, ΔGexp=−RT ln K, 298.1 K
T1 construct: His6-3C-NusA (cleaved yes); made in house; host or cells: E. coli BL21(DE3), pET50b vector
T1 sequence (P10276 183-417 limits assumed): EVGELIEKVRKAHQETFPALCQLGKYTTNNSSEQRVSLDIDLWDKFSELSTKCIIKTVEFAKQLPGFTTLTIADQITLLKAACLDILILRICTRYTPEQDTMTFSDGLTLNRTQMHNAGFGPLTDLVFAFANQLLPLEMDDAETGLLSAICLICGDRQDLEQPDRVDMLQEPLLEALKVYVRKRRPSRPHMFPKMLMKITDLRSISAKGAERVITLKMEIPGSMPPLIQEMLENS
Description: (§1) Fluorescence competition assays were employed to determine the relative binding affinities of each synthetic retinoid toward the LBD of the RARs. The assay is based on the potential for competitive displacement of the inherently fluorescent retinoid DC271 from the LBP by a test nonfluorescent synthetic retinoid. Changes in the fluorescence were measured following the addition of a serial dilution of the test compound and the results were plotted to generate a binding curve. […] Assays were performed for both RARα and RARγ. […] Nonlinear least-squares regression analyses were performed to calculate binding affinities and reported as binding K D, the equilibrium dissociation constant between the RAR isoform and the test synthetic retinoid.
(§2) RARα/γ proteins were expressed in BL21(DE3) cells (NEB) transformed into pET50b (Novagen) and pOPINS3C vectors, respectively, carrying the gene construct and containing a His6-3C-NusA tag or His6-3C-SUMO tag used for solubility. Transformations were carried out under standard conditions using Quick Transformation Protocol (New England Biolabs). Successful transformants were grown overnight in 2xYT media (Melford) and frozen for storage at −80 °C in 50% glycerol. Expression cultures were inoculated from glycerol stocks into 25 mL of 2xYT media (Melford) with 50 μg/mL kanamycin or 100 μg/mL ampicillin (Sigma-Aldrich) and grown overnight with shaking (37 °C, 150 rpm). The overnight cultures were transferred into 1 L expression flasks (2xYT/ampicillin 100 μg/mL or 2xYT/kanamycin 50 μg/mL) and grown with shaking at 37 °C, 150 rpm. Induction was carried out at an OD600 of 0.6–0.8, with 1 mL of 1 M IPTG (1 mM in culture), before shaking overnight (20 h) at 18 °C. The resulting cultures were spun down into pellets using an Avanti Hi-Speed centrifuge (JLA 8.1000, 4000 rpm, 30 min, 4 °C), before the supernatant was removed and the bacterial pellet were frozen at −80 °C.
(§3) RARα/γ (pET50b or pOPINS3C, BL21(DE3) (NEB)) were resuspended from pellet with 20 mL Wash Buffer (20 mM Tris-HCl, 300 mM NaCl and 20 mM imidazole, pH 8) and the resulting suspension was sonicated on ice (40% power, 2 min, repeated twice with 1 min rest in-between) before centrifuging (Avanti Hi-Speed JA25.50, 20,000 rpm, 1 h, 4 °C). Supernatants were clarified using 0.45 μm syringe filters (Thermo Fisher Scientific). Affinity chromatography and size-exclusion (SEC) chromatography were carried out on AKTA Pure25 (Cytiva). Supernatants were loaded onto the HisTrap HP column (5 mL, Cytiva) and washed using 25 mL of wash Buffer. The column was washed with Wash Buffer until UV trace returned to baseline, before RARα/γ was eluted using a gradient of Elution Buffer (20 mM Tris-HCl, 300 mM NaCl, 500 mM imidazole pH 8). The resulting protein-containing fractions were analyzed by SDS-PAGE (200 V, 30 min) using SurePAGE Bis-Tris 12% precast gels (Genscript). Protein concentrations were estimated using absorbance at 280 nm on a DS-11 spectrophotometer (Denovix) with calculated molecular weights and extinction coefficients (Expasy). RAR proteins were cleaved overnight from 3C-NusA tag or 3C-SUMO-His tag using 1 Unit/100 μg protein of HRV3C protease (Thermo Fisher Scientific) at 4 °C. Solution after digestion was loaded onto a HiLoad 16/600 Superdex 75 prep-grade column (Cytiva) and cleaved RARα/γ was separated from the tag based on molecular weight and eluted from the column using SEC Buffer (20 mM Tris-HCl, 300 mM NaCl and 0.5 mM TCEP, pH 8) into 2 mL fractions. The resulting protein fractions were analyzed by SDS PAGE (200 V, 30 min) using SurePAGE Bis-Tris 12% precast gels (Genscript), before being concentrated to 5 mg/mL using centrifugal concentrators (Sartorius) and frozen at −80 °C in small aliquots for use in binding assays.

RARα [2] = system: RARα; design: species or system human; conditions: log-log plot of K D for RARα and RARγ
Description: as §1, §2, §3

RARα [3] = target: T2, RARα (Homo sapiens, UniProt P10276); conditions: for Kd: stated for the RARs (RARα and RARγ) together, read-out: K D, binding to the RARs
T2 sequence (P10276 182-417): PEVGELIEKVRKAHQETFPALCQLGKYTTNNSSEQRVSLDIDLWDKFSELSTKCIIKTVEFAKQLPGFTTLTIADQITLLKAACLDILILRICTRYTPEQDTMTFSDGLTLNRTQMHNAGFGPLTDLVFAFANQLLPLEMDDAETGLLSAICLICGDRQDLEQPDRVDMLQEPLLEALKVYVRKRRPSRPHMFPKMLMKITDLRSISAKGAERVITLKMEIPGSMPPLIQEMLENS
Description: as §1, §2, §3

SMILES | Kd (RARα [1]) [nM] | ΔGEXP RARα (RARα [1]) | binding preference RARα versus RARγ (from K D) (RARα [2]) | Kd (RARα [3]) [nM] | Binding KD (± SD) RARα (RARα [1]) | binding preference RARα versus RARγ (from K D) (RARα [3]; log-log plot of K D for RARα and RARγ)
CC1(C)CCC(C)(C)c2cc(C#Cc3ccc(C(=O)O)c(F)c3)ccc21 [Compound 13, 2-Fluoro-4-[2-(5,5,8,8-tetramethyl-5,6,7,8-tetrahydronaphthalen-2-yl)ethynyl]benzoic Acid] | 13.6 | -10.8 kcal/mol | close to the plotted line representing equal binding affinity for RARα and RARγ | – | – | –
CC1(C)CCC(C)(C)c2cc(C#Cc3ccc(C(=O)O)cc3F)ccc21 [Compound 14, 3-Fluoro-4-[2-(5,5,8,8-tetramethyl-5,6,7,8-tetrahydronaphthalen-2-yl)ethynyl]benzoic Acid] | 30.9 | -10.3 kcal/mol | bind RARγ stronger than RARα | – | – | –
CC1(C)CCC(C)(C)c2cc(C#Cc3cc(F)c(C(=O)O)c(F)c3)ccc21 [Compound 15, 2,6-Difluoro-4-[2-(5,5,8,8-tetramethyl-5,6,7,8-tetrahydronaphthalen-2-yl)ethynyl]benzoic Acid] | 0.37 | -13.0 kcal/mol | strongly binds both RARα and RARγ | – | – | –
CC1(C)CCC(C)(C)c2cc(C#Cc3ccc(C(=O)O)cc3Cl)ccc21 [Compound 16, 3-Chloro-4-[2-(5,5,8,8-tetramethyl-5,6,7,8-tetrahydronaphthalen-2-yl)ethynyl]benzoic Acid] | 73.7 | -9.79 kcal/mol | bind RARγ stronger than RARα | – | – | –
Cc1cc2c(cc1C#Cc1ccc(C(=O)O)c(F)c1)C(C)(C)CCC2(C)C [Compound 17, 2-Fluoro-4-[2-(3,5,5,8,8-pentamethyl-5,6,7,8-tetrahydronaphthalen-2-yl)ethynyl]benzoic Acid] | 28.4 | -10.40 kcal/mol | close to the plotted line representing equal binding affinity for RARα and RARγ | – | – | –
Cc1cc2c(cc1C#Cc1ccc(C(=O)O)cc1F)C(C)(C)CCC2(C)C [Compound 18, 3-Fluoro-4-[2-(3,5,5,8,8-pentamethyl-5,6,7,8-tetrahydronaphthalen-2-yl)ethynyl]benzoic Acid] | 18.1 | -10.6 kcal/mol | close to the plotted line representing equal binding affinity for RARα and RARγ | – | – | –
Cc1cc2c(cc1C#Cc1cc(F)c(C(=O)O)c(F)c1)C(C)(C)CCC2(C)C [Compound 19, 2,6-Difluoro-4-[2-(3,5,5,8,8-pentamethyl-5,6,7,8-tetrahydronaphthalen-2-yl)ethynyl]benzoic Acid] | 5.72 | -11.3 kcal/mol | bind RARα preferentially over RARγ | – | – | –
COc1cc2c(cc1C#Cc1cc(F)c(C(=O)O)c(F)c1)C(C)(C)CCC2(C)C [Compound 22, 2,6-Difluoro-4-[2-(3-methoxy-5,5,8,8-tetramethyl-5,6,7,8-tetrahydronaphthalen-2-yl)ethynyl]benzoic Acid] | 105 | -9.55 kcal/mol | bind RARα preferentially over RARγ | 100 to 1000 | – | –
CC1(C)CCC(C)(C)c2cc(C#Cc3ccc(C(=O)O)cn3)ccc21 [Compound 23, 6-[2-(5,5,8,8-Tetramethyl-5,6,7,8-tetrahydronaphthalen-2-yl)ethynyl]pyridine-3-carboxylic Acid] | 15.8 | -10.7 kcal/mol | close to the plotted line representing equal binding affinity for RARα and RARγ | – | – | –
CC1(C)CCC(C)(C)c2cc(C#Cc3ccc(C(=O)O)nc3)ccc21 [Compound 24, 5-[2-(5,5,8,8-Tetramethyl-5,6,7,8-tetrahydronaphthalen-2-yl)ethynyl]pyridine-2-carboxylic Acid] | 87.1 | -9.64 kcal/mol | bind RARα preferentially over RARγ | – | – | –
CC1(C)CCC(C)(C)c2cc(C#Cc3cnc(C(=O)O)cn3)ccc21 [Compound 25, 5-[2-(5,5,8,8-Tetramethyl-5,6,7,8-tetrahydronaphthalen-2-yl)ethynyl]pyrazine-2-carboxylic Acid] | 927 | -8.23 kcal/mol | – | – | – | –
Cc1cc2c(cc1C#Cc1ccc(C(=O)O)cn1)C(C)(C)CCC2(C)C [Compound 26, 6-[2-(3,5,5,8,8-Pentamethyl-5,6,7,8-tetrahydronaphthalen-2-yl)ethynyl]pyridine-3-carboxylic Acid] | 48.3 | -10.0 kcal/mol | bind RARα preferentially over RARγ | – | – | –
COc1cc2c(cc1C#Cc1ncc(C(=O)O)cn1)C(C)(C)CCC2(C)C [Compound 29, 2-[2-(3-Methoxy-5,5,8,8-tetramethyl-5,6,7,8-tetrahydronaphthalen-2-yl)ethynyl]pyrimidine-5-carboxylic Acid] | – | Non-competitive Binding | – | – | noncompetitive binding | –
Cc1sc(-c2ccc(C(=O)O)cn2)nc1-c1cnc2c(n1)C(C)(C)CCC2(C)C [Compound 41, 6-[5-Methyl-4-(5,5,8,8-tetramethyl-5,6,7,8-tetrahydroquinoxalin-2-yl)-1,3-thiazol-2-yl]pyridine-3-carboxylic Acid] | – | Non-competitive Binding | – | – | noncompetitive binding | –
Cc1sc(-c2ccc(C(=O)O)cc2)nc1-c1ccc2c(c1)C(C)(C)CCC2(C)C [GZ25, reference compound] | 688 | -7.92 kcal/mol | – | 100 to 1000 | – | bind RARγ stronger than RARα
